Source: publication PMC11256326, “Discovery of Heparin Mimetic, Potent, and Selective Inhibitors of Human Clotting Factor XIIIa” (ACS Omega, 2024)
Marks after values point to notes of the source that are not given here.

Target: T1, FXIIIa (Homo sapiens, UniProt P00488)
T1 construct: purchased Haematologic Technologies; host or cells: human plasma
T1 sequence (P00488 39-732 limits assumed): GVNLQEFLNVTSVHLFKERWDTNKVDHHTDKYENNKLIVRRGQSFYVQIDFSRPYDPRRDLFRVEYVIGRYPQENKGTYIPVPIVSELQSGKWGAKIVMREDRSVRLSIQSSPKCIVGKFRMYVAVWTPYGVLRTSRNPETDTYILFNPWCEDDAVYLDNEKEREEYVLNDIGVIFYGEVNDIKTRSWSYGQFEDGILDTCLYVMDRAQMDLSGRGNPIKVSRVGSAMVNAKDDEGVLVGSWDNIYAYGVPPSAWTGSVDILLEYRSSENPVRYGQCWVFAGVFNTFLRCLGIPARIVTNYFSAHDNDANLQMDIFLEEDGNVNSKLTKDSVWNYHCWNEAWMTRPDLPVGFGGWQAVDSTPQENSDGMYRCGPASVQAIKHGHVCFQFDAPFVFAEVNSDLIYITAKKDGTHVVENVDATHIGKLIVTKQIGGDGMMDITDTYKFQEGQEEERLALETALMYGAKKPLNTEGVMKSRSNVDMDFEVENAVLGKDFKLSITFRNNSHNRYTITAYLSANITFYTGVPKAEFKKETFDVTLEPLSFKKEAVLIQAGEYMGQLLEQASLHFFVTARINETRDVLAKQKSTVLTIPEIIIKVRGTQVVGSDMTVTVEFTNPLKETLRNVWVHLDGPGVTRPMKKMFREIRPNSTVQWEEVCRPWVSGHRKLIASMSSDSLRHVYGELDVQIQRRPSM
Experiment: Michaelis-Menten kinetics of dansylcadaverine and N,N-dimethylcasein conjugation by human FXIIIa
Assay type: biochemical
Details: for VMAX, dansylcadaverine varied: N,N-dimethylcasein 5 mg/mL; for VMAX, dimethylcasein varied: dansylcadaverine 250 μM
Method: To elucidate the FXIIIa inhibitory capacity of compound 16, the kinetics of dansylcadaverine conjugation with dimethylcasein by FXIIIa were investigated with and without the inhibitor using the bisubstrate fluorescence assay.[36],[49],[55] At a fixed, high concentration of dansylcadaverine (250 μM), the initial rate of conjugation increased in a hyperbolic manner with increasing concentration of dimethylcasein (0–15 mg/mL) (Figure 6A) in the presence as well as absence of inhibitor 16. Analysis using the Michaelis equation led to KM values for dimethylcasein of 0.65 ± 0.04 mg/mL (∼29.5 μM) and 7.54 ± 0.90 mg/mL (∼342.7 μM) in the absence and presence of 16, respectively (Table 4). […] To derive kinetic constants for dansylcadaverine, we used a fixed, high concentration of dimethylcasein (5 mg/mL) and studied the initial rate of conjugation, as described above. […] It is important to note that FXIIIa-mediated reaction is a bisubstrate conjugation reaction and its interaction with inhibitor 16 is sensed differently by the two substrates. […] Yet, for both substrates, there was a similar slight decrease (∼1.5-fold) in the VMAX with the same inhibitor concentration. In these experiments inhibitor 16 was used at varying levels, of which the highest concentration ensured that FXIIIa was essentially fully saturated and inhibited.
The initial rate of FXIIIa-mediated conjugation between dansylcadaverine and N,N-dimethylcasein was determined by monitoring the linear increase in fluorescence at λEM = 550 nm (λEX = 360 nm). This initial rate was assessed as a function of various concentrations of either (1) dansylcadaverine (ranging from 0 to 15 mM; resulting effective concentrations in the well were 0–750 μM) at a fixed saturating concentration of dimethylcasein (5 mg/mL), or (2) dimethylcasein (ranging from 0 to 15 mg/mL) at a fixed concentration of dansylcadaverine (5 mM; resulting effective concentration of 250 μM), both in the absence or presence of inhibitor 16 (at concentrations of 0, 0.5, 2.5, 15, and 25 μM). These assays were conducted in 50 mM Tris-HCl buffer at pH 8.0, containing 100 mM NaCl, 1 mM DTT, and 10 mM CaCl2 at 37 °C. The obtained data were fitted using the standard Michaelis–Menten equation (eq 2) to determine the values of KM and VMAX. [drawing 2] 2

Nc1c(/N=N/c2ccc(S(=O)(=O)CCOS(=O)(=O)O)cc2)c(S(=O)(=O)O)cc2cc(S(=O)(=O)O)c(/N=N/c3ccc(S(=O)(=O)CCOS(=O)(=O)O)cc3)c(O)c12 [compound 16]
mechanism of FXIIIa inhibition (Michaelis–Menten kinetics): only competes with the Gln-donor protein substrate
decrease in VMAX, dansylcadaverine varied (16 at 25 μM vs absence): ~1.5 fold
decrease in VMAX, dimethylcasein varied (16 at 25 μM vs absence): ~1.4 fold
decrease in dansylcadaverine binding affinity (KM increase) (16 at 25 μM vs absence): ~2 fold
decrease in dimethylcasein binding affinity (KM increase) (16 at 25 μM vs absence): ~11.6 fold
VMAX, dansylcadaverine varied ([16] = 0.5 μM): 111.4 ± 4.1 RFU/min (×10^3)
VMAX, dimethylcasein varied ([16] = 0.5 μM): 43.5 ± 2.4 RFU/min (×10^3)
VMAX, dansylcadaverine varied ([16] = 2.5 μM): 89.76 ± 3.8 RFU/min (×10^3)
VMAX, dimethylcasein varied ([16] = 2.5 μM): 42.0 ± 0.6 RFU/min (×10^3)
VMAX, dansylcadaverine varied ([16] = 15 μM): 81.94 ± 4.0 RFU/min (×10^3)
VMAX, dimethylcasein varied ([16] = 15 μM): 44.5 ± 1.5 RFU/min (×10^3)
VMAX, dansylcadaverine varied ([16] = 25 μM): 69.69 ± 2.9 RFU/min (×10^3)
VMAX, dimethylcasein varied ([16] = 25 μM): 34.9 ± 2.0 RFU/min (×10^3)
